Target: Prothrombin (Homo sapiens, UniProt P00734)
Assay: Thrombin Assay
Details: pH 8; 22 °C
Procedure: Human thrombin and substrate were added to a 96-well assay plate containing inhibitor in reaction buffer. […] All compounds were assayed in duplicate at seven concentrations. Percent inhibition at each concentration was calculated from OD405nm value from the experimental and control sample. IC50 values were calculated from a four-parameter logistic regression equation.

Which IC50 does the source give for `N=C(N)c1ccc(CNC(=O)Cc2c(-c3cccc(N)c3)ccc(NCc3ccccc3)c2F)cc1` [2-[6-(3-aminophenyl)-3-(benzylamino)-2-fluorophenyl]-N-[(4-carbamimidoylphenyl)methyl]acetamide] here?
The IC50 was 10 µM.

Which IC50 does the source give for `N=C(N)c1ccc(CNC(=O)Cc2c(F)ccc(NS(=O)(=O)Cc3ccccc3)c2F)cc1` [N-[(4-carbamimidoylphenyl)methyl]-2-[2,6-difluoro-3-(phenylmethanesulfonamido)phenyl]acetamide] here?
The IC50 was 26.9 µM.

How did the IC50 turn out when `CC(C)=Nc1cc(O)c(-c2ccccc2)c(CC(=O)NCc2ccc(C(=N)N)cc2)c1O` [N-[(4-carbamimidoylphenyl)methyl]-2-[3,6-dioxo-2-phenyl-5-(propan-2-ylamino)cyclohexa-1,4-dien-1-yl]acetamide] was run?
Its IC50 is > 30 µM.

Which IC50 does the source give for `N=C(N)c1ccc(CNC(=O)Cc2c(F)ccc(NCCc3ccccc3)c2F)cc1` [N-[(4-carbamimidoylphenyl)methyl]-2-{2,6-difluoro-3-[(2-phenylethyl)amino]phenyl}acetamide] here?
The IC50 was 1.56 µM.

How did the IC50 turn out when `N=C(N)c1ccc(CNC(=O)Cc2c(-c3ccccc3)ccc(NCCc3ccccc3)c2O)cc1` [N-[(4-carbamimidoylphenyl)methyl]-2-{2-hydroxy-6-phenyl-3-[(2-phenylethyl)amino]phenyl}acetamide] was run?
The IC50 was 6.8 µM.

Source: BindingDB's records for doi:10.1021/jm030233b (Pharmacia, 2003)
